Results: ChEMBL document CHEMBL3046969, “Synthesis, structure, and biological assay of cinnamic amides as potential EGFR kinase inhibitors” (Med Chem Res, 2013)

How the values were obtained:
MCF7 = assay: cells; assay type: functional, cell-based; settings: Homo sapiens, MCF7, 48 h
Description: Antiproliferative activity against Homo sapiens (human) MCF-7 cells overexpressing EGFR assessed as inhibition of cell survival after 48 hr by MTT assay

[1] = target: Epidermal growth factor receptor (Homo sapiens, UniProt P00533); assay: Inhibition of autophosphorylation of His6-tagged EGFR cytoplasmic domain (unknown origin) expressed in Sf9 cells by DELFIA time resolved fluorometry; assay type: cell-based
Epidermal growth factor receptor, sequence (P00533 whole entry, the tested form may be a part): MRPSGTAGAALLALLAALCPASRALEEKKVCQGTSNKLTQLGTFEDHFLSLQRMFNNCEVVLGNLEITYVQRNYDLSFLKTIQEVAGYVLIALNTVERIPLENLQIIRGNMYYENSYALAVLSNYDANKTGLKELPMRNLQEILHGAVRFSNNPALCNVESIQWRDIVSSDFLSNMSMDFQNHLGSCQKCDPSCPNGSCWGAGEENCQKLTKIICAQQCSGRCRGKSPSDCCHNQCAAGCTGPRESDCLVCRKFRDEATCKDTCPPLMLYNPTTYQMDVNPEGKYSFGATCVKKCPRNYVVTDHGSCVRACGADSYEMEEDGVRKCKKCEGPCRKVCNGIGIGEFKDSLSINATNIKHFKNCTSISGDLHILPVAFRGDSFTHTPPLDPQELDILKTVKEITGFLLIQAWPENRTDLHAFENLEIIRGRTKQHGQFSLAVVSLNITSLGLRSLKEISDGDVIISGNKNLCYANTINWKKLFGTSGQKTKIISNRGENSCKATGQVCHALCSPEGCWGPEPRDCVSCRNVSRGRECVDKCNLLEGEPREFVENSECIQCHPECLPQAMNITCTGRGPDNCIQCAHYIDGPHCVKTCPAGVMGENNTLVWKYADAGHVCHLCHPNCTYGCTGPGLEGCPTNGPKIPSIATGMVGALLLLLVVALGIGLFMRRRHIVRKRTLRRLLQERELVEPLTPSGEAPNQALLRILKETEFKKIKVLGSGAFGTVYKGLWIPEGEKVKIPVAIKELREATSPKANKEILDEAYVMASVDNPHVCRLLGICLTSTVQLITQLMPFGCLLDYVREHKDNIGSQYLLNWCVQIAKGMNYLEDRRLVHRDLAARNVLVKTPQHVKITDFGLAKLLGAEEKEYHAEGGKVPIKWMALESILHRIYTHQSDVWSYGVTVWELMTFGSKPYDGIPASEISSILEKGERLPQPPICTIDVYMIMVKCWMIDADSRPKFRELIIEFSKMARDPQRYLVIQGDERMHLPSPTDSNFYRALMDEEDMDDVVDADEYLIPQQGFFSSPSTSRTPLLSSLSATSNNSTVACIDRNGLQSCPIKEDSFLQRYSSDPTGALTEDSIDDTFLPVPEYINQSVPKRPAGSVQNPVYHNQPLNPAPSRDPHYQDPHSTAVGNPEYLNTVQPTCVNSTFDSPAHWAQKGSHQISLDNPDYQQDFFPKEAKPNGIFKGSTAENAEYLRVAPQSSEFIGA

Row | Compound | IC50 (MCF7) [µM] | IC50 [1] [µM]
1 | CCCCCCCCCCCCNC(=O)/C=C/c1ccccc1 [N-DODECYLCINNAMAMIDE] | 13.4 | 38.5
2 | C#Cc1cccc(Nc2ncnc3cc(OCCOC)c(OCCOC)cc23)c1 [ERLOTINIB] | 0.22 | –
3 | Cc1ccccc1NC(=O)/C=C/c1ccccc1 [N-O-TOLYLCINNAMAMIDE] | 3.17 | 12.3
4 | O=C(/C=C/c1ccccc1)Nc1ccc(Cl)cc1Cl | 4 | 16.2
5 | Cc1cccc(NC(=O)/C=C/c2ccccc2)c1 [N-M-TOLYLCINNAMAMIDE] | 5.83 | 19.7
6 | CC(C)c1ccc(NC(=O)/C=C/c2ccccc2)cc1 | 5.39 | 14.6
7 | Cc1ccc(NC(=O)/C=C/c2ccccc2)cc1 [N-P-TOLYLCINNAMAMIDE] | 3.26 | 12.7
8 | CC(C)(C)NC(=O)/C=C/c1ccccc1 [N-TERT-BUTYLCINNAMAMIDE] | 11.1 | 29.8
9 | O=C(/C=C/c1ccccc1)Nc1ccccc1Br | 4.05 | 15.7
10 | CCOc1ccc(NC(=O)/C=C/c2ccccc2)cc1 | 3.3 | 10.2
11 | O=C(/C=C/c1ccccc1)Nc1cc(F)c(F)c(F)c1 | 2.89 | 12.9
12 | O=C(/C=C/c1ccccc1)Nc1cc(Cl)cc(Cl)c1 | 4.47 | 13.9
13 | O=C(/C=C/c1ccccc1)Nc1cc(F)cc(F)c1 | 4.65 | 13.2
14 | O=C(/C=C/c1ccccc1)Nc1ccc(F)cc1F | 4.14 | 11.7
15 | CCOc1ccccc1NC(=O)/C=C/c1ccccc1 | 2.43 | 9.35
